Measurements: paper PMC10366102, “Dose escalation and expansion cohorts in patients with advanced breast cancer in a Phase I study of the CDK7-inhibitor samuraciclib” (Nature Communications, 2023)
“Also recorded” adds a separate entry of the source.

Columns and labels:
[1] = system: advanced TNBC; assay: Module 1B-1 anti-tumor activity (RECIST V1.1); type: in vivo, human
Procedure: A single arm expansion was conducted to refine the safety, tolerability, PK, and pharmacodynamic profiles of samuraciclib monotherapy (360 mg OD) in male or female patients with advanced TNBC. Patients with histological, radiological or cytological confirmation of metastasis or locally advanced TNBC not considered to be appropriate for further standard treatment, who had received at least 1 line of systemic anti-cancer therapy, and measurable disease according to the RECIST V1.1, were eligible.
Patients underwent regular safety monitoring and 8-week scans reported using RECIST V1.1. […]
treatment RECIST assessment. […]
number of patients in the particular analysis population. Duration of response (DoR) was defined as the time from documentation of tumor response to disease progression. Progression-free survival (PFS) was […]
cause, whichever occurred first. Efficacy results were summarized descriptively and Kaplan -Meier plots provided where appropriate. […]

[2] = Module 2A trough PK of samuraciclib and fulvestrant; type: in vivo, human
From the text: PK parameters were derived using standard non-compartmental methods.
o. Radionuclide Bone Scans, Whole Body should be performed at Screening. See also footnote a.
• If at Screening bone lesions were identified, scans will be repeated during the active treatment phase and during follow-up visits every 16 weeks (± 7 days) from Cycle 1 Day
1, and at the time of confirmation of CR.
• If no bone lesions were identified at Screening, bone scans will only be performed when clinically indicated (i.e., patient describes new or worsening bone pain or has
increasing alkaline phosphatase level or other signs and symptoms of new/progressing bone metastases) but are required at the time of confirmation of CR. New abnormalities
found on subsequent bone scans must be confirmed by CT scan with bone windows or MRI.
p. Adverse Event Reporting : Serious Adverse Events (SAEs) must be reported from the time the patient provides informed consent through and including 28 calendar days after the last
administration of the study drug. SAEs occurring after the active reporting period has ended should be reported if the investigator becomes aware of them. All SAEs that the investigator
believes have at least a reasonable possibility of being related to the study drugs are to be reported to the Sponsor. All AEs (serious and non-serious) should be recorded on the eCRF […]

[3] = system: pPolII; assay: Immunohistochemistry H-score in paired tumor biopsies, pPolII; type: in vivo, human
Procedure: Per-protocol ctDNA samples were taken in Module 1B-1 at screening, C1D1, C2D1 and on D1 of alternating cycles from Cycle 3; in Module 2A at screening, C1D1 and at either C2D1 (240 mg) or C2D15 (360 mg) for mutational analysis[24],[33], (Supplementary Information). pPolII in lymphocytes and pPolII and pCDK1/2/3 in core needle tissue samples from patients recruited to the paired biopsy cohort were evaluated for on-target pharmacodynamic analyses. […]
pharmacodynamic effects in tumor tissue. […]
variability in H-score was observed between sections. […]
H-scores for pre-dose and on-study biopsies and summary statistics for the observed H-score when stained for pCDK1/2/3 and pPolII are shown in Supplementary Table 11. Significance was calculated using Student’s one-tailed paired t-test, where the alternative hypothesis was that on-study samples had

[4] = set-up: method as in ref IB; details: ref IB, cited from earlier work
[5] = system: CYP2C9; set-up: method as in ref IB; details: human microsomes; ref IB; cited from earlier work
[6] = set-up: method as in ref IB; details: dog microsomes; ref IB; cited from earlier work
[7] = system: cytochrome P450 enzymes; set-up: method as in ref IB; details: followed by 3A4 and a small contribution by 2C19; ref IB; cited from earlier work

SMILES: CC(C)c1cnn2c(NCc3ccccc3)cc(NC[C@H]3CCNC[C@@H]3O)nc12 [samuraciclib, Samuraciclib]
- Clinical benefit rate at 24 weeks ([1]; Module 1B-1, 4/20): 20.0%
- Best overall response progressive disease ([1]; Module 1B-1, 20 evaluable): 40.0%
- Best overall response stable disease ([1]; Module 1B-1, 20 evaluable): 55.0%
- Objective response rate ([1]; Module 1B-1, 20 evaluable): 5.0%
- Progression-free survival, median (95% confidence interval) ([1]; Module 1B-1 ITT N = 23): 2.4 (1.9, 3.8) months
- Best objective response: Complete response ([1]; Module 1B-1 N = 20): 0 n (%)
- Best objective response: Partial response ([1]; Module 1B-1 N = 20): 1 (5.0) n (%)
- Best objective response: Progressive disease ([1]; Module 1B-1 N = 20): 8 (40.0) n (%)
- Best objective response: Stable disease ([1]; Module 1B-1 N = 20): 11 (55.0) n (%)
- Objective response rate ([1]; Module 1B-1 N = 20): 1 (5.0) n (%)
- Interaction between samuraciclib and fulvestrant PK [2]: no fulvestrant interaction; also recorded: did not indicate an interaction; also recorded: No clinical PK interactions
- pPolII H-Score, On study, average ([3]; Average 240mg OD patients, pre-dose 239): 208
- pPolII H-Score, On study, average ([3]; Average 360mg OD patients, pre-dose 277): 271
- pPolII H-Score, On study, average ([3]; Average all patients, pre-dose 258): 240
- pPolII H-Score, On study ([3]; HR+ breast cancer, breast biopsy, 360 mg OD, pre-dose 286): 271
- pPolII H-Score, On study ([3]; HR+ breast cancer, liver biopsy, 240 mg OD, pre-dose 243): 225
- pPolII H-Score, On study ([3]; HR+ breast cancer, liver biopsy, 240 mg OD, pre-dose 251): 232
- pPolII H-Score, On study ([3]; HR+ breast cancer, liver biopsy, 360 mg OD, pre-dose 271): 262
- pPolII H-Score, On study ([3]; HR+ breast cancer, liver biopsy, 360 mg OD, pre-dose 273): 281
- pPolII H-Score, On study ([3]; Rhabdomyosarcoma, axilla biopsy, 240 mg OD, pre-dose 223): 167
- pPolII in tumor tissue ([3]; paired biopsy cohort): reduction of phosphorylated RNA polymerase II; also recorded: A reduction in pPolII was also seen in tumor tissue
- Oral bioavailability ([4]; rat): good oral bioavailability
- Apparent elimination half-life (T½) ([4]; rats): 4.8 h
- Plasma clearance ([4]; rats): high
- Volume of distribution ([4]; rats): high volume of distribution
- Intrinsic clearance [6]: intermediate
- CYP mediated clearance [7]: mainly occurs via CYP2D6
